The text below walks through data of paper PMC11487390, “Design and Synthesis of 1,3-Diarylpyrazoles and Investigation of Their Cytotoxicity and Antiparasitic Profile” (International Journal of Molecular Sciences, 2024).

The nature of data set [1]: Cytotoxicity assay, MRC-5SV2 cells, resazurin, 3 days. Type of data set: cell-based. Particulars: human, MRC-5SV2 human lung fibroblast cells, MRC-5 cells, highest concentration 64 µM. The method in brief: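 MRC-5SV2 fibroblasts (1.5 × 10^5 cells/mL, MEM, 5% FCS) exposed 3 days at 37 °C, 5% CO2 to 64–0.25 µM (4-fold), DMSO <1%. Viability by resazurin (10 µg mL^−1, 4 h) fluorescence; EC50 interpolated from flanking points around 50% inhibition.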
In general terms: Alamar Blue is a resazurin reagent that responds to reducing activity.

Data set [2] deals with L. infantum MHOM/MA(BE)/67 strain. As to the kind of experiment: L. infantum intracellular amastigote assay in PMM (Giemsa, 5 days). Format: cell-based, Leishmania infantum. A digest of the protocol: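 Primary mouse peritoneal macrophages were infected with spleen-derived amastigotes (3 × 10^4 PMM + 4.5 × 10^5 parasites/well), and compound was added 2 h post-infection. Ten concentrations (64 µM to 0.2 nM; DMSO <1%) were incubated 5 days at 37 °C, 5% CO2. Giemsa-stained amastigotes per macrophage were counted microscopically to give EC50.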

Data set [3] concerns T. b. brucei Squib 427 strain. Description: T. b. brucei growth assay (resazurin, 3 days). Type of data set: cell-based, Trypanosoma brucei brucei. Particulars: read-out: T. b. bruc. (EC50), 3 days. The method in brief:
(§1)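 Bloodstream parasites in HMI-9 with 10% FCS at 37 °C, 5% CO2, 1.5 × 10^4 (T. b. brucei) or 4 × 10^3 (T. b. rhodesiense) per well, exposed to 10 concentrations from 64 µM to 0.2 nM. After 3 days resazurin added, fluorescence read after 24 h or 6 h respectively; EC50 derived.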

Data set [4] concerns primary mouse macrophages (PMMs). As to the kind of experiment: Cytotoxicity against primary peritoneal mouse macrophages (PMM). The following applies: Macrophage. Format: cell-based. As to the method: The series of final products (13–69) was investigated in vitro on the human fetal lung fibroblast cell line MRC-5 (Table 1) to assess cytotoxicity toward normal (i.e., non-malignant) human cells. […] As explained earlier, these are important pathogens for humans or cattle (T. b. brucei) and a persistent need for new therapeutics exists for these parasites. As a part of the antiparasitic tests, cytotoxicity against primary mouse macrophages (PMMs) was also evaluated. These murine cells serve as host cells for parasites in the L. infantum assay. Therefore, the murine macrophage assay not only offers additional cytotoxicological insight but is also essential to interpreting the readout of the L. infantum assay.
The MRC-5SV2 human lung fibroblast cell line was cultured in MEM + Earle’s salts-medium, supplemented with 2 mM L-glutamine, 16.5 mM NaHCO3, and 5% inactivated fetal calf serum. For evaluating the antileishmanial activity, the L. infantum MHOM/MA(BE)/67 strain was used. This strain was maintained in a Golden hamster (Mesocricetus auratus). Amastigotes were collected from the spleen of an infected donor hamster using differential centrifugation. Primary peritoneal mouse macrophages were used as host cells and were collected 2 days after peritoneal stimulation with a 2% potato starch suspension. For the intracellular T. cruzi assays, the Tulahuen CL2 strain was used that expresses β-galactosidase. The strain was maintained in MRC-5SV2 cells in MEM medium. The T. b. brucei Squib 427 strain or T. b. rhodesiense STIB-900 strain was used for screening against the extracellular African trypanosomes. The strains were maintained in Hirumi’s Modified Iscove’s medium-9 (HMI-9), supplemented with 10% inactivated fetal calf serum. All cultures and assays were performed at 37 °C with 5% CO2.
Primary peritoneal mouse macrophages (PMMs) were prepared in RPMI-1640 medium, supplemented with 2 mM L-glutamine, 16.5 mM NaHCO3, and 5% inactivated fetal calf serum. The macrophages are infected after 48 h with spleen-derived L. infantum amastigotes (3 × 10^4 PMM + 4.5 × 10^5 parasites/well). The compounds were added after 2 h of infection. After 5 days incubation, parasite burdens (mean number of amastigotes/macrophage) were assessed microscopically after staining with a 10% Giemsa solution and EC50 values were calculated.

For data set [5], the target named is Toll-like receptor 9 (TLR9). On the set-up: method as in PMID 27537371. The following applies: readout of a cellular assay, cited from earlier work.
The subject of data set [6] is T. b. rhodesiense STIB-900 strain. Description: T. b. rhodesiense growth assay (resazurin, 3 days). Particulars: read-out: T. b. rhod. (EC50), 3 days. Format: cell-based, Trypanosoma brucei rhodesiense. A digest of the protocol: as §1
Data set [7] concerns Trypanosoma cruzi Tulahuen CL2 strain. As to the kind of experiment: Intracellular T. cruzi assay in MRC-5 cells (β-galactosidase/CPRG, 7 days). Type of data set: cell-based. Particulars: intracellular in MRC-5 cells. The method in brief: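 MRC-5SV2 fibroblasts infected with β-galactosidase-expressing T. cruzi Tulahuen CL2 and exposed to compounds (10 concentrations, 64 µM to 0.2 nM; DMSO <1%) for 7 days at 37 °C, 5% CO2. Parasite growth read by CPRG absorbance at 540 nm after 4 h versus untreated infected controls; EC50 calculated.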

[8] abbreviates: Trypanosoma cruzi, TULAHUEN, MRC5, 168 h.
The mark [9] stands for this setting: Leishmania infantum, 120 h, amastigotes in PMM, 5 days, read-out: L. inf. (EC50).
Where [10] appears, read: Trypanosoma brucei, RHODESIENSE, 72 h.

Counter-ions that a name gives are not always drawn. Like-named read-outs stand apart in the source and are kept apart here.

With `c1ccc(-n2cc(CNCCN3CCCC3)c(-c3ccc4c(c3)OCCO4)n2)cc1` [Compound 26, N-((3-(2,3-dihydrobenzo[b][1,4]dioxin-6-yl)-1-phenyl-1H-pyrazol-4-yl)methyl)-2-(pyrrolidin-1-yl)ethan-1-amine dihydrochloride], the EC50 (usually the concentration needed to bring the measured effect to its halfway point) at 3 days in data set [1] came out at 21.7 µM. In addition, the EC50 was less than 10 µM in data set [2] (Leishmania infantum, 120 h, read-out: L. inf. (EC50, µM), amastigotes in PMM, 5 days); 8.3 µM in data set [2] (read-out: L. inf. (EC50), amastigotes in PMM, 5 days); 1.52 µM in data set [3]; less than 10 µM in data set [3] (listed as 26/HIT 8); 32 µM in data set [4]; 3.16 µM in data set [5] (read-out: EC50 for TLR9 antagonism). For the same molecule, the EC50 in data set [6] was 1.75 µM; in data set [6] (listed as 26/HIT 8) it was less than 10 µM; in data set [7] (setting [8]), less than 10 µM; in data set [7], 7.92 µM.

The molecule `CN(C)CCCNCc1cn(-c2ccccc2)nc1-c1ccc2c(c1)OCCO2.Cl.Cl` [Compound 29, N^1-((3-(2,3-dihydrobenzo[b][1,4]dioxin-6-yl)-1-phenyl-1H-pyrazol-4-yl)methyl)-N^3,N^3-dimethylpropane-1,3-diamine dihydrochloride] showed an EC50 at 3 days in data set [1] of 5.14 µM. Further, the “EC50 for TLR9 antagonism” value in data set [5] is on record as “grossly comparable potency”.

In turn, `O=C(NCc1ccc(F)cc1)c1cn(-c2ccccc2)nc1-c1ccc2c(c1)OCCO2` [Compound 33, 3-(2,3-dihydrobenzo[b][1,4]dioxin-6-yl)-N-(4-fluorobenzyl)-1-phenyl-1H-pyrazole-4-carboxamide] gave a concentration giving a half-maximal response (EC50) at 3 days in data set [1] of 64 µM. The EC50 in data set [2] (setting [9]) is 8.3 µM; in data set [2] (amastigotes in PMM, 5 days, read-out: L. inf. (EC50)) it was 9.51 µM; in data set [3] (Trypanosoma brucei, 72 h) it was greater than 64 µM; in data set [4], greater than 64 µM; in data set [6] (setting [10]) it was 4.23 µM; in data set [7] (setting [8]) it was greater than 64 µM.

The molecule `O=C(NCCc1ccncc1)c1cn(-c2ccccc2)nc1-c1ccc2c(c1)OCCO2` [Compound 35, 3-(2,3-dihydrobenzo[b][1,4]dioxin-6-yl)-1-phenyl-N-(2-(pyridin-4-yl)ethyl)-1H-pyrazole-4-carboxamide] displayed an EC50 at 3 days in data set [1] greater than 64 µM. The EC50 in data set [2] (setting [9]) is greater than 64 µM; in data set [3] (Trypanosoma brucei, 72 h), 23.2 µM; in data set [4], greater than 64 µM; in data set [6] (setting [10]), 1.28 µM; in data set [7] (setting [8]) it was 4.33 µM.

In turn, `O=C(NCCc1cccnc1)c1cn(-c2ccccc2)nc1-c1ccc2c(c1)OCCO2` [Compound 36, 3-(2,3-dihydrobenzo[b][1,4]dioxin-6-yl)-1-phenyl-N-(2-(pyridin-3-yl)ethyl)-1H-pyrazole-4-carboxamide] came in with a half-maximal effective concentration (EC50) at 3 days in data set [1] of 45 µM. Further, the concentration giving a half-maximal response (EC50) in data set [2] (setting [9]) was 45.2 µM; in data set [3] (Trypanosoma brucei, 72 h) it was 19.4 µM; in data set [4], greater than 64 µM; in data set [6] (setting [10]), 4 µM; in data set [7] (setting [8]), 4.56 µM.

The molecule `O=C(NCCc1ccccn1)c1cn(-c2ccccc2)nc1-c1ccc2c(c1)OCCO2` [Compound 37, 3-(2,3-dihydrobenzo[b][1,4]dioxin-6-yl)-1-phenyl-N-(2-(pyridin-2-yl)ethyl)-1H-pyrazole-4-carboxamide] displayed an EC50 at 3 days in data set [1] of 32 µM. Besides, the EC50 in data set [2] (setting [9]) was greater than 64 µM; in data set [3] (Trypanosoma brucei, 72 h) it was 20.2 µM; in data set [4], greater than 64 µM; in data set [6] (setting [10]), 2.96 µM; in data set [7] (setting [8]), 13.1 µM.

`CNC(=O)c1cc(Oc2ccc(NC(=O)c3cn(-c4ccccc4)nc3-c3ccc4c(c3)OCCO4)cc2)ccn1` [Compound 38, 4-(4-(3-(2,3-dihydrobenzo[b][1,4]dioxin-6-yl)-1-phenyl-1H-pyrazole-4-carboxamido)phenoxy)-N-methylpicolinamide] gave an EC50 at 3 days in data set [1] of 6.35 µM. Also, the EC50 in data set [2] (setting [9]) was greater than 64 µM; in data set [3] (Trypanosoma brucei, 72 h) it was 8 µM; in data set [4], greater than 64 µM; in data set [6] (setting [10]), 1.75 µM; in data set [7] (setting [8]), greater than 64 µM.

On to `O=C(c1cn(-c2ccccc2)nc1-c1ccc2c(c1)OCCO2)N1CCCC1` [Compound 39, (3-(2,3-dihydrobenzo[b][1,4]dioxin-6-yl)-1-phenyl-1H-pyrazol-4-yl)(pyrrolidin-1-yl)methanone], for which the concentration for a half-maximal effect (EC50) at 3 days in data set [1] came out at 23.2 µM. Moreover, the EC50 in data set [2] (setting [9]) is 38.1 µM; in data set [3] (Trypanosoma brucei, 72 h) it was greater than 64 µM; in data set [4], greater than 64 µM; in data set [6] (setting [10]), 37.6 µM; in data set [7] (setting [8]), 8.8 µM.

For `O=C(c1cn(-c2ccccc2)nc1-c1ccc2c(c1)OCCO2)N1CCOCC1` [Compound 40, (3-(2,3-dihydrobenzo[b][1,4]dioxin-6-yl)-1-phenyl-1H-pyrazol-4-yl)(morpholino)methanone], the EC50 at 3 days in data set [1] is greater than 64 µM. The EC50 in data set [2] (setting [9]) was greater than 64 µM; in data set [3] (Trypanosoma brucei, 72 h), greater than 64 µM; in data set [4], greater than 64 µM; in data set [6] (setting [10]) it was greater than 64 µM; in data set [7] (setting [8]) it was greater than 64 µM.
